Like-named read-outs stand apart in the source and are kept apart here. Marks after values point to notes of the source that are not given here.
Tests used:
[1] = tested on: hiPSC-derived neurons co-cultured with human primary astrocytes in 2D; test: Ca2+ transient oscillation assay (FDSS), 2D co-culture; assay type: cell-based; settings: for effect on peak number / Ca2+ neuronal oscillations, in words: 2D format; for activation at 11.11 µM / activation at 33.33 µM / activation at 100 µM / activation at 300 µM / activation at 0.11 µM / activation at 0.33 µM / activation at 1 µM / activation at 3 µM: Homo sapiens, 1 h, 60 min
Method in brief: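 hiPSC-derived excitatory neurons (CW50065, Quick-Neuron EX-SeV) co-cultured with human primary astrocytes at 4:1 (10,000:2500 cells per well). Cal-520-loaded cells in HBSS with 2 mM CaCl2 and 10 mM HEPES were pretreated with 0.04% DMSO.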

[2] = tested on: hiPSC-derived neurons co-cultured with human primary astrocytes in 3D; test: Ca2+ transient oscillation assay (FDSS), 3D spheroids; assay type: cell-based; settings: for Area under the curve - 3D Mean / Peak Number—3D Mean / Peak amplitude - 3D Mean / Peak width - 3D Mean / Peak-to-peak interval - 3D Mean: 60 min
Method in brief: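 Fura-2 fluorescence was read twice for 20 min each: a baseline 10 min after 0.04% DMSO, and again 60 min after compound addition at nominal final concentration. The 3D co-cultures (1:1 hiPSC neurons from a donor and human astrocytes, 8000 each) matured 5 weeks in BrainPhys medium after a 1-week differentiation.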

[3] = ref PharmaPendium, cited from earlier work
[4] = read-out: Area under the curve - 2D Mean
[5] = read-out: Peak amplitude - 2D Mean
[6] = read-out: Peak-to-peak interval - 2D Mean
[7] = Table 1, peak plasma concentration in men, free therapeutic Cmax
[8] = Table 2, highest plasma concentration in humans after the therapeutic dose

## CC(=O)OCC[N+](C)(C)C [Acetylcholine]
[1]
  effect on peak number / Ca2+ neuronal oscillations, in words: significantly reduced peak number
[1]; [4]
  activation at 11.11 µM: 38.3%
  activation at 33.33 µM: 19.9%
  activation at 100 µM: -1.3%
  activation at 300 µM: -6.1%
[1]; read-out: Peak Number—2D Mean
  activation at 11.11 µM: 2.4%
  activation at 33.33 µM: -31.5%
  activation at 100 µM: -47.2%
  activation at 300 µM: -63.5%
[1]; [5]
  activation at 11.11 µM: 11.4%
  activation at 33.33 µM: 2.3%
  activation at 100 µM: -17%
  activation at 300 µM: -12.8%
[1]; read-out: Peak width - 2D Mean
  activation at 11.11 µM: 26.2%
  activation at 33.33 µM: 16.2%
  activation at 100 µM: -3.8%
  activation at 300 µM: 2.6%
[1]; [6]
  activation at 11.11 µM: 28%
  activation at 33.33 µM: -25.8%
  activation at 100 µM: 11.3%
  activation at 300 µM: 45.5%
[2]; 11.11 µM
  Area under the curve - 3D Mean: 109.9 % change from baseline
  Peak Number—3D Mean: −33.8 % change from baseline
  Peak amplitude - 3D Mean: 90.9 % change from baseline
  Peak width - 3D Mean: 4.2 % change from baseline
  Peak-to-peak interval - 3D Mean: 89.6 % change from baseline
[2]; 33.33 µM
  Area under the curve - 3D Mean: 110.9 % change from baseline
  Peak Number—3D Mean: −51.6 * % change from baseline
  Peak amplitude - 3D Mean: 105.2 % change from baseline
  Peak width - 3D Mean: 0.4 % change from baseline
  Peak-to-peak interval - 3D Mean: 38.9 % change from baseline
[2]; 100 µM
  Area under the curve - 3D Mean: 97.3 % change from baseline
  Peak Number—3D Mean: −34.9 % change from baseline
  Peak amplitude - 3D Mean: 88.6 % change from baseline
  Peak width - 3D Mean: 0.0 % change from baseline
  Peak-to-peak interval - 3D Mean: −5.5 % change from baseline
[2]; 300 µM
  Area under the curve - 3D Mean: 72.7 % change from baseline
  Peak Number—3D Mean: −68.3 ** % change from baseline
  Peak amplitude - 3D Mean: 56.5 % change from baseline
  Peak width - 3D Mean: −12.2 % change from baseline
  Peak-to-peak interval - 3D Mean: 75.9 % change from baseline
[3]; [7]
  Free Cmax: 1000 to 10000 nM
[3]; [8]
  Free Cmax: 1000 to 10000 nM

## Clc1ccc2c(c1)C(N1CCNCC1)=Nc1ccccc1O2 [Amoxapine]
[1]
  effect on peak number / Ca2+ neuronal oscillations, in words: significantly reduced peak number
[1]; [4]
  activation at 0.11 µM: 27.8%
  activation at 0.33 µM: 25.3%
  activation at 1 µM: 22.8%
  activation at 3 µM: -40.8%
[1]; read-out: Peak Number—2D Mean
  activation at 0.11 µM: -5.2%
  activation at 0.33 µM: 25.3%
  activation at 1 µM: 12.5%
  activation at 3 µM: -35.3%
[1]; [5]
  activation at 0.11 µM: 7.7%
  activation at 0.33 µM: 12.7%
  activation at 1 µM: -1.5%
  activation at 3 µM: -20.7%
[1]; read-out: Peak width - 2D Mean
  activation at 0.11 µM: 22%
  activation at 0.33 µM: 14.8%
  activation at 1 µM: 31.7%
  activation at 3 µM: -37.7%
[1]; [6]
  activation at 0.11 µM: 8.8%
  activation at 0.33 µM: -7.8%
  activation at 1 µM: -4.5%
  activation at 3 µM: 56.7%
[2]; 0.11 µM
  Area under the curve - 3D Mean: 122.7 % change from baseline
  Peak Number—3D Mean: −10.1 % change from baseline
  Peak amplitude - 3D Mean: 92.4 % change from baseline
  Peak width - 3D Mean: 11.9 % change from baseline
  Peak-to-peak interval - 3D Mean: 14.8 % change from baseline
[2]; 0.33 µM
  Area under the curve - 3D Mean: 130.2 % change from baseline
  Peak Number—3D Mean: −2.2 % change from baseline
  Peak amplitude - 3D Mean: 101.9 % change from baseline
  Peak width - 3D Mean: 12.5 % change from baseline
  Peak-to-peak interval - 3D Mean: 7.1 % change from baseline
[2]; 1 µM
  Area under the curve - 3D Mean: 124.0 % change from baseline
  Peak Number—3D Mean: −10.8 % change from baseline
  Peak amplitude - 3D Mean: 102.7 % change from baseline
  Peak width - 3D Mean: 6.8 % change from baseline
  Peak-to-peak interval - 3D Mean: 4.4 % change from baseline
[2]; 3 µM
  Area under the curve - 3D Mean: 148.1 % change from baseline
  Peak Number—3D Mean: −7.5 % change from baseline
  Peak amplitude - 3D Mean: 105.1 % change from baseline
  Peak width - 3D Mean: 21.0 % change from baseline
  Peak-to-peak interval - 3D Mean: −6.6 % change from baseline
[2]; 3D-cultured
  effect on peak number of oscillations, in words: did not significantly change the peak number
[3]; [7]
  Free Cmax: 40 to 600 nM
[3]; [8]
  Free Cmax: 40 to 600 nM

## CC1(C)S[C@@H]2[C@H](NC(=O)[C@H](N)c3ccc(O)cc3)C(=O)N2[C@H]1C(=O)O [Amoxicillin]
[1]; [4]
  activation at 0.11 µM: 38.3%
  activation at 0.33 µM: 23.7%
  activation at 1 µM: 45.8%
  activation at 3 µM: 43%
[1]; read-out: Peak Number—2D Mean
  activation at 0.11 µM: -10.5%
  activation at 0.33 µM: 8.3%
  activation at 1 µM: 27.2%
  activation at 3 µM: 16.2%
[1]; [5]
  activation at 0.11 µM: 19.3%
  activation at 0.33 µM: 5%
  activation at 1 µM: 8.3%
  activation at 3 µM: 7.5%
[1]; read-out: Peak width - 2D Mean
  activation at 0.11 µM: 22.3%
  activation at 0.33 µM: 25.7%
  activation at 1 µM: 48%
  activation at 3 µM: 47.7%
[1]; [6]
  activation at 0.11 µM: 27.3%
  activation at 0.33 µM: 9.3%
  activation at 1 µM: -16%
  activation at 3 µM: -7.8%
[2]; 0.11 µM
  Area under the curve - 3D Mean: 147.7 % change from baseline
  Peak Number—3D Mean: −8.0 % change from baseline
  Peak amplitude - 3D Mean: 136.9 % change from baseline
  Peak width - 3D Mean: 4.7 % change from baseline
  Peak-to-peak interval - 3D Mean: 12.1 % change from baseline
[2]; 0.33 µM
  Area under the curve - 3D Mean: 145.7 % change from baseline
  Peak Number—3D Mean: 1.4 % change from baseline
  Peak amplitude - 3D Mean: 132.0 % change from baseline
  Peak width - 3D Mean: 5.5 % change from baseline
  Peak-to-peak interval - 3D Mean: 9.0 % change from baseline
[2]; 1 µM
  Area under the curve - 3D Mean: 122.0 % change from baseline
  Peak Number—3D Mean: 9.3 % change from baseline
  Peak amplitude - 3D Mean: 130.1 % change from baseline
  Peak width - 3D Mean: −4.5 % change from baseline
  Peak-to-peak interval - 3D Mean: −5.5 % change from baseline
[2]; 3 µM
  Area under the curve - 3D Mean: 125.7 % change from baseline
  Peak Number—3D Mean: 18.3 % change from baseline
  Peak amplitude - 3D Mean: 123.5 % change from baseline
  Peak width - 3D Mean: 1.2 % change from baseline
  Peak-to-peak interval - 3D Mean: −1.2 % change from baseline
[3]; [7]
  Free Cmax: 3 to 32000 nM
